# Like-named read-outs stand apart in the source and are kept apart here.
# How the values were obtained:
# [1] = tested on: BxPC-3; assay: MTT assay, BxPC-3; assay type: cell-based; settings: Homo sapiens
# Description: (§1) Experiments conducted during the course of developing embodiments for the present invention involved performance of a phenotypic screen of a library of 20,000 small-molecules representing five million compounds. […] Subsequently, a lead optimization campaign was performed to synthesize a series of close analogs. Initially, the 50 analogs were tested in three pancreatic cancer cell lines using MTT assay (Table 1).
# (§2) For in vitro studies, compounds were dissolved in DMSO at 10 mM as stock solutions and stored at −20° C. For in vivo studies, QN523 was dissolved in a vehicle containing 5% DMSO, 35% propylene glycol and 60% saline, and administered at 100 uL through intraperitoneal injections.
# [2] = tested on: MiaPaCa-2; assay: MTT assay, MiaPaCa-2; settings: Homo sapiens
# Description: Cells were treated with QN523 for 1, 4, 8, 24, 48, 72 h and left in culture in fresh media. MTT assay was performed 72 h after initiation of treatment. Data points represent Mean±SD from three independent experiments.
# as §1, §2
# [3] = tested on: Panc-1; assay: MTT assay, Panc-1; assay type: cell-based; settings: Homo sapiens
# Description: as §1, §2
# [4] = tested on: three pancreatic cancer cell lines; assay: MTT assay, three pancreatic cancer cell lines; assay type: cell-based; settings: read-out: Mark: IC50 lower than 1 μM in at least one cell line, Table 1
# [5] = tested on: GRP78, CHOP, ATF3, GDF15; assay: Western blotting of stress responsive proteins in MiaPaCa-2; assay type: cell-based
# Description: FIG. 11: QN523 induces protein expression of stress markers dose-dependently.
# This example describes the validation of biomarkers GDF15, ATF3, DDIT3, HSPA5, WIPI1, GABARAPL1 and MAP1LC3B in pancreatic cancer cell lines. To validate the findings from bioinformatics analysis basing on Bru-seq experiments, the proposed biomarkers were further tested in pancreatic cancer cell lines. […] However, the potency of Sulindac is much lower than that of QN523, with IC50 of 300 μM in MiaPaCa-2.
# (§3) In addition, primary antibodies for LC3B, survivin, cyclin D1, Stat3 and phosphorylated Stat3 (Y705) are from Cell Signaling Technology.
# [6] = tested on: WIPI1, GABARAPL1 and LC3B; assay: Western blotting of autophagy related proteins in MiaPaCa-2; assay type: cell-based; settings: for activation of autophagy: at their IC50 values
# Description: FIG. 12: QN523 induces protein expression of autophagy markers dose-dependently.
# Significant induction of the protein was detected at concentrations as low as 0.25 μM.
# as §3
# [7] = BXPC-3, MTT assay, Mean ± SD, three independent experiments, read-out: IC50 Values BxPC-3
# [8] = MIA PaCa-2, read-out: IC50 Values MiaPaCa-2
# [9] = PANC-1, MTT assay, Mean ± SD, three independent experiments, read-out: IC50 Values Panc-1
# [10] = BXPC-3, read-out: IC50 Values BxPC-3
# [11] = MIA PaCa-2, read-out: IC50 Values MiaPaCa-2, MTT assay, Mean ± SD, three independent experiments
# [12] = PANC-1, read-out: IC50 Values Panc-1
Structure (SMILES),"IC50 [1, 7] [µM]","IC50 [2, 8] [µM]","IC50 [3, 9] [µM]",IC50 [4] [µM],other results
COc1cc(NC(=O)c2cnccn2)c2ncccc2c1 [QN107],5.53 ± 1.18,0.28 ± 0.04,0.77 ± 0.21,< 1,–
"Cc1cnc(C(=O)Nc2cc(OCCN3CCOCC3)cc3cccnc23)cn1 [QN138, 5-Methyl-pyrazine-2-carboxylic acid [6-(2-morpholin-4-yl-ethoxy)-quinolin-8-yl]-amide]",2 ± 0.87,0.73 ± 0.15,3.5 ± 0.5,< 1,–
"O=C(Nc1cc(OCCF)cc2cccnc12)c1cnccn1 [QN144, Pyrazine-2-carboxylic acid [6-(2-fluoro-ethoxy)-quinolin-8-yl]amide]",4.33 ± 0.76,0.37 ± 0.15,0.53 ± 0.21,< 1,–
"CC(C)(C)OC(=O)NCCOc1cc(NC(=O)c2cnccn2)c2ncccc2c1 [QN151, (2-{8-[(Pyrazine-2-carbonyl)amino]quinolin-6-yloxy}ethyl)carbamic acid tert-butyl ester]",9.17 ± 0.76,0.87 ± 0.15,9.5 ± 0.5,< 1,–
"Cc1cnc(C(=O)Nc2cc(OCCNC(=O)OC(C)(C)C)cc3cccnc23)cn1 [QN152, (2-{8-[(5-Methylpyrazine-2-carbonyl)amino]quinolin-6-yloxy}ethyl)carbamic acid tert-butyl ester]",3.67 ± 0.76,0.67 ± 0.12,2.17 ± 0.76,< 1,–
"Cc1cnc(C(=O)Nc2ccc3ncccc3c2)cn1 [QN520, 5-Methylpyrazine-2-carboxylic acid quinolin-6-ylamide]",> 10,> 10,> 10,–,–
"Cc1ccc(C(=O)Nc2cccc3cccnc23)cn1 [QN522, 6-Methyl-N-quinolin-8-yl-nicotinamide]",–,–,–,–,"IC50 [1, 10]: > 10 µM; IC50 [2, 11]: > 10 µM; IC50 [3, 12]: > 10 µM"
"O=C(Nc1cccc2cccnc12)c1ccc(Br)nc1 [QN524, 6-Bromo-N-quinolin-8-yl-nicotinamide]",–,–,–,–,"IC50 [1, 10]: > 10 µM; IC50 [2, 11]: > 10 µM; IC50 [3, 12]: > 10 µM"
"O=C(Nc1cccc2cccnc12)c1ccc(Br)cn1 [QN529, 5-Bromopyridine-2-carboxylic acid quinolin-8-ylamide]",–,–,–,–,"IC50 [1, 10]: > 10 µM; IC50 [2, 11]: 1.83 ± 0.72 µM; IC50 [3, 12]: 4 ± 0.8 µM"
"O=C(Nc1cccc2cccnc12)c1cccc(Br)n1 [QN530, 6-Bromopyridine-2-carboxylic acid quinolin-8-ylamide]",–,–,–,–,"IC50 [1, 10]: > 10 µM; IC50 [2, 11]: > 10 µM; IC50 [3, 12]: > 10 µM"
"O=C(Nc1cccc2cccnc12)c1ccc(F)nc1 [QN532, 6-Fluoro-N-quinolin-8-yl-nicotinamide]",–,–,–,–,"IC50 [1, 10]: > 10 µM; IC50 [2, 11]: > 10 µM; IC50 [3, 12]: > 10 µM"
"O=C(Nc1cccc2cccnc12)c1cccnn1 [QN566, Pyridazine-3-carboxylic acid quinolin-8-ylamide]",–,–,–,–,"IC50 [1, 10]: > 10 µM; IC50 [2, 11]: 8.5 ± 1.03 µM; IC50 [3, 12]: > 10 µM"
"O=C(Nc1cccc2cccnc12)c1ncccn1 [QN567, Pyrimidine-2-carboxylic acid quinolin-8-ylamide]",–,–,–,< 1,"IC50 [1, 10]: > 10 µM; IC50 [2, 11]: 0.33 ± 0.06 µM; IC50 [3, 12]: > 10 µM"
"O=C(Nc1cccc2cccnc12)c1cnc2ccccc2n1 [QN572, Quinoxaline-2-carboxylic acid quinolin-8-ylamide]",–,–,–,–,"IC50 [1, 10]: > 10 µM; IC50 [2, 11]: > 10 µM; IC50 [3, 12]: > 10 µM"
"O=C(Nc1cccc2cccnc12)c1cnc(Cl)cn1 [QN573, 5-Chloropyrazine-2-carboxylic acid quinolin-8-ylamide]",–,–,–,–,"IC50 [1, 10]: > 10 µM; IC50 [2, 11]: 7 ± 1.3 µM; IC50 [3, 12]: 9.3 ± 0.8 µM"
CC1=C(CC(=O)O)c2cc(F)ccc2/C1=C\c1ccc([S+](C)[O-])cc1 (stereo not drawn) [Sulindac],–,–,–,–,"IC50 ([2]; MIA PaCa-2, read-out: IC50 in MiaPaCa-2): 300 µM; protein levels of stress responsive markers HSPA5, DDIT3, ATF3 and GDF15 ([5]; 72 h, western blotting): induced; autophagy-related markers WIPI1, GABARAPL1 and LC3B ([6]; 72 h treatment, western blotting): Accumulation"
CN1CCN(CCCN2c3ccccc3Sc3ccc(Cl)cc32)CC1 [prochlorperazine],–,–,–,–,induction of GRP78 and CHOP ([5]; tested at IC50 value): most robust induction of GRP78 and CHOP; activation of autophagy [6]: robust activation of autophagy
CSc1ccc2c(c1)N(CCC1CCCCN1C)c1ccccc1S2 (stereo not drawn) [thioridazine],–,–,–,–,activation of autophagy [6]: robust activation of autophagy

# Further lines, with some results ahead:
"IC50 [1, 7] [µM]","IC50 [2, 8] [µM]","IC50 [3, 9] [µM]",IC50 [4] [µM],Structure (SMILES),other results
> 10,> 10,> 10,–,"Cc1cnc(C(=O)Nc2cccc3ncccc23)cn1 [QN521, 5-Methylpyrazine-2-carboxylic acid quinolin-5-ylamide]",–
> 10,2.23 ± 0.31,6.83 ± 1.73,–,"Cc1cnc(C(=O)Nc2ccc(Br)c3cccnc23)cn1 [QN571, 5-Methylpyrazine-2-carboxylic acid (5-bromoquinolin-8-yl)amide]",–
> 10,> 10,> 10,–,N#C/C(=C\c1cccc(Br)n1)C(=O)Nc1cccc2cccnc12 [QN608],–
> 10,> 10,> 10,–,N#C/C(=C\c1ccc(O)c(O)c1)C(=O)Nc1cccc2cccnc12 [QN609],–
> 10,> 10,> 10,–,COc1cc(/C=C(\C#N)C(=O)Nc2cccc3cccnc23)cc(OC)c1OC [QN610],–
7.51 ± 1.32,0.75 ± 0.09,7.02 ± 2.92,< 1,"O=C(Nc1ccc(Br)c2cccnc12)c1cnccn1 [QN618, Pyrazine-2-carboxylic acid (5-bromoquinolin-8-yl)amide]",–
> 10,> 10,> 10,–,"Cc1cnc(C(=O)Nc2cccc3ccc(C)nc23)cn1 [QN632, 5-Methylpyrazine-2-carboxylic acid (2-methylquinolin-8-yl)amide]",–
> 10,> 10,> 10,–,"Cc1ccc2cccc(NC(=O)c3cnccn3)c2n1 [QN634, Pyrazine-2-carboxylic acid (2-methylquinolin-8-yl)amide]",–
> 10,0.13 ± 0.06,0.67 ± 0.25,< 1,"O=C(Nc1cc(F)cc2cccnc12)c1cnccn1 [QN651, Pyrazine-2-carboxylic acid (6-fluoro-quinolin-8-yl)amide]",–
> 10,0.31 ± 0.16,2.12 ± 0.94,< 1,"Cc1cnc(C(=O)Nc2cc(F)cc3cccnc23)cn1 [QN652, 5-Methylpyrazine-2-carboxylic acid (6-fluoroquinolin-8-yl)amide]",–
7.22 ± 1.02,7.7 ± 1.53,6.72 ± 1.02,–,"O=C(Nc1nccc2cccnc12)c1cnccn1 [QN655, Pyrazine-2-carboxylic acid [1,7]naphthyridin-8-ylamide]",–
> 10,0.3 ± 0.1,5.33 ± 1.53,< 1,"O=C(Nc1cc(F)cc2cccnc12)c1ncccn1 [QN658, Pyrimidine-2-carboxylic acid (6-fluoroquinolin-8-yl)amide]",–
> 10,> 10,> 10,–,"CN(C)Cc1ccc2cccc(NC(=O)c3cnccn3)c2n1 [QN659, Pyrazine-2-carboxylic acid (2-dimethylaminomethyl-quinolin-8-yl)amide]",–
> 10,> 10,> 10,–,"Cc1ccc2cccc(NC(=O)c3ncccn3)c2n1 [QN660, Pyrimidine-2-carboxylic acid (2-methylquinolin-8-yl)amide]",–
6.7 ± 0.6,0.27 ± 0.15,0.83 ± 0.21,< 1,"COc1cc(NC(=O)c2cnc(C)cn2)c2ncccc2c1 [QN663, 5-Methylpyrazine-2-carboxylic acid (6-methoxyquinolin-8-yl)amide]",–
> 10,2.83 ± 0.76,2.7 ± 0.52,–,"O=C(Nc1cc(Cl)cc2cccnc12)c1cnccn1 [QN792, N-(6-Chloroquinolin-8-yl)pyrazine-2-carboxamide]",–
5.2 ± 0.3,1.5 ± 0.5,1.77 ± 0.25,–,"Cc1cnc(C(=O)Nc2cc(Cl)cc3cccnc23)cn1 [QN793, N-(6-Chloroquinolin-8-yl)-5-methylpyrazine-2-carboxamide]",–
> 10,0.8 ± 0.05,4.67 ± 1.53,< 1,"O=C(Nc1cc(Cl)cc2cccnc12)c1ncccn1 [QN794, N-(6-Chloroquinolin-8-yl)pyrimidine-2-carboxamide]",–

# Reference: patent US10457662B2, “Substituted amides for treating and preventing cancer” (The Regents of the University of Michigan, priority 2015, dated 2019)
